Where a name gives a salt, the structure may show the parent alone. Read-outs that look alike come from different tables or passages of the source.
Columns and labels:
Experiment in all cases: AK assay 384-well format, Prestwick library screening
P. aeruginosa = type: cell-based, Pseudomonas aeruginosa; details: 50 μM final drug concentration; for fold induction at 50 µM: Pseudomonas aeruginosa, 3 h
E. faecium = type: cell-based, Enterococcus faecium; details: 50 μM final drug concentration; for fold induction at 50 µM: Enterococcus faecium, 3 h
K. pneumoniae = type: cell-based, Klebsiella pneumoniae; details: 50 μM final drug concentration; for fold induction at 50 µM: Klebsiella pneumoniae, 3 h
E. coli = type: cell-based, Escherichia coli; details: 50 μM final drug concentration; for fold induction at 50 µM: Escherichia coli, 3 h
E. cloacae = type: cell-based, Enterobacter cloacae; details: 50 μM final drug concentration; for fold induction at 50 µM: Enterobacter cloacae, 3 h
[1] = tested on: A. baumannii strain 98-37-09; type: cell-based, Acinetobacter baumannii; details: 50 μM final drug concentration; for fold induction at 50 µM: Acinetobacter baumannii, 983709, 3 h
[2] = tested on: S. aureus strain USA300-0114; type: cell-based, Staphylococcus aureus; details: 50 μM final drug concentration; for fold induction at 50 µM: Staphylococcus aureus, USA300, 3 h
[3] = 384-well format, cutoff for positive-scoring molecules 3-fold increase, read-out: AK-based Prestwick Library Screening Results, P. aeruginosa (increase in extracellular AK activity)
[4] = 384-well format, cutoff for positive-scoring molecules 3-fold increase, read-out: AK-based Prestwick Library Screening Results, E. faecium (increase in extracellular AK activity)
[5] = 384-well format, cutoff for positive-scoring molecules 3-fold increase, read-out: AK-based Prestwick Library Screening Results, K. pneumoniae (increase in extracellular AK activity)
[6] = 384-well format, cutoff for positive-scoring molecules 3-fold increase, read-out: AK-based Prestwick Library Screening Results, E. coli (increase in extracellular AK activity)
[7] = 384-well format, cutoff for positive-scoring molecules 3-fold increase, read-out: AK-based Prestwick Library Screening Results, E. cloacae (increase in extracellular AK activity)
[8] = 384-well format, cutoff for positive-scoring molecules 3-fold increase, read-out: AK-based Prestwick Library Screening Results, A. baumannii (increase in extracellular AK activity)
[9] = 384-well format, cutoff for positive-scoring molecules 3-fold increase, read-out: AK-based Prestwick Library Screening Results, S. aureus (increase in extracellular AK activity)
[10] = planktonic P. aeruginosa, 384-well, cutoff for positive-scoring molecules 3-fold increase, read-out: AK-based Prestwick Library Screening Results: P. aeruginosa (increase in extracellular AK activity)
[11] = planktonic E. faecium, 384-well, cutoff for positive-scoring molecules 3-fold increase, read-out: AK-based Prestwick Library Screening Results: E. faecium (increase in extracellular AK activity)
[12] = planktonic K. pneumoniae, 384-well, cutoff for positive-scoring molecules 3-fold increase, read-out: AK-based Prestwick Library Screening Results: K. pneumoniae (increase in extracellular AK activity)
[13] = planktonic E. coli, 384-well, cutoff for positive-scoring molecules 3-fold increase, read-out: AK-based Prestwick Library Screening Results: E. coli (increase in extracellular AK activity)
[14] = planktonic E. cloacae, 384-well, cutoff for positive-scoring molecules 3-fold increase, read-out: AK-based Prestwick Library Screening Results: E. cloacae (increase in extracellular AK activity)
[15] = planktonic A. baumannii, 384-well, cutoff for positive-scoring molecules 3-fold increase, read-out: AK-based Prestwick Library Screening Results: A. baumannii (increase in extracellular AK activity)
[16] = planktonic S. aureus, 384-well, cutoff for positive-scoring molecules 3-fold increase, read-out: AK-based Prestwick Library Screening Results: S. aureus (increase in extracellular AK activity)
[17] = cutoff for positive-scoring molecules 3-fold increase, read-out: AK-based Prestwick Library Screening Results, P. aeruginosa (fold increase in extracellular AK activity)
[18] = cutoff for positive-scoring molecules 3-fold increase, read-out: AK-based Prestwick Library Screening Results, E. faecium (fold increase in extracellular AK activity)
[19] = cutoff for positive-scoring molecules 3-fold increase, read-out: AK-based Prestwick Library Screening Results, K. pneumoniae (fold increase in extracellular AK activity)
[20] = cutoff for positive-scoring molecules 3-fold increase, read-out: AK-based Prestwick Library Screening Results, E. coli (fold increase in extracellular AK activity)
[21] = cutoff for positive-scoring molecules 3-fold increase, read-out: AK-based Prestwick Library Screening Results, E. cloacae (fold increase in extracellular AK activity)
[22] = cutoff for positive-scoring molecules 3-fold increase, read-out: AK-based Prestwick Library Screening Results, A. baumannii (fold increase in extracellular AK activity)
[23] = cutoff for positive-scoring molecules 3-fold increase, read-out: AK-based Prestwick Library Screening Results, S. aureus (fold increase in extracellular AK activity)
[24] = cutoff for positive-scoring molecules 3-fold increase
[25] = planktonic, cutoff for positive-scoring molecules 3-fold increase

CC(NCCC(c1ccccc1)c1ccccc1)c1ccccc1 (stereo not drawn) [Fendiline hydrochloride]
fold induction at 50 µM (P. aeruginosa; [3]): 1.1 | fold induction at 50 µM (E. faecium; [4]): 1.1 | fold induction at 50 µM (K. pneumoniae; [5]): 0.8 | fold induction at 50 µM (E. coli; [6]): 1 | fold induction at 50 µM (E. cloacae; [7]): 0.9 | fold induction at 50 µM [1, 8]: 1.5 | fold induction at 50 µM [2, 9]: 0.8

CO/N=C(\C(=O)N[C@@H]1C(=O)N2C(C(=O)O)=C(COC(C)=O)CS[C@H]12)c1csc(N)n1 [Cefotaxime sodium salt]
fold induction at 50 µM (P. aeruginosa; [10]): 10 | fold induction at 50 µM (E. faecium; [11]): 1 | fold induction at 50 µM (K. pneumoniae; [12]): 5.5 | fold induction at 50 µM (E. coli; [13]): 21.9 | fold induction at 50 µM (E. cloacae; [14]): 22 | fold induction at 50 µM [1, 15]: 2.2 | fold induction at 50 µM [2, 16]: 2.9

NCCc1c[nH]c2ccc(O)cc12 [Serotonin hydrochloride]
fold induction at 50 µM (P. aeruginosa; planktonic P. aeruginosa, 384-well, […], read-out: AK-based Prestwick Library Screening Results: P. aeruginosa (increase in extracellular AK activity)): 0.6 | fold induction at 50 µM (E. faecium; planktonic E. faecium, 384-well, […], read-out: AK-based Prestwick Library Screening Results: E. faecium (increase in extracellular AK activity)): 0.9 | fold induction at 50 µM (K. pneumoniae; planktonic K. pneumoniae, 384-well, […], read-out: AK-based Prestwick Library Screening Results: K. pneumoniae (increase in extracellular AK activity)): 0.6 | fold induction at 50 µM (E. coli; [13]): 0.8 | fold induction at 50 µM (E. cloacae; planktonic E. cloacae, 384-well, […], read-out: AK-based Prestwick Library Screening Results: E. cloacae (increase in extracellular AK activity)): 0.6 | fold induction at 50 µM ([1]; planktonic A. baumannii, 384-well, […], read-out: AK-based Prestwick Library Screening Results: A. baumannii (increase in extracellular AK activity)): 0.6 | fold induction at 50 µM ([2]; planktonic S. aureus, 384-well, […], read-out: AK-based Prestwick Library Screening Results: S. aureus (increase in extracellular AK activity)): 0.6

CCOC(=O)NNc1nncc2ccccc12 [Todralazine hydrochloride]
fold induction at 50 µM (P. aeruginosa; [10]): 1.1 | fold induction at 50 µM (E. faecium; [11]): 0.8 | fold induction at 50 µM (K. pneumoniae; [12]): 1 | fold induction at 50 µM (E. coli; [13]): 1.3 | fold induction at 50 µM (E. cloacae; [14]): 1.7 | fold induction at 50 µM [1, 15]: 1.1 | fold induction at 50 µM [2, 16]: 1.3

CCOC(=O)Nc1ccc2c(c1)N(C(=O)CCN1CCOCC1)c1ccccc1S2 [Moricizine hydrochloride]
fold induction at 50 µM (P. aeruginosa; [17]): 0.6 | fold induction at 50 µM (E. faecium; [18]): 1 | fold induction at 50 µM (K. pneumoniae; [19]): 0.6 | fold induction at 50 µM (E. coli; [20]): 0.6 | fold induction at 50 µM (E. cloacae; [21]): 0.7 | fold induction at 50 µM [1, 22]: 0.6 | fold induction at 50 µM [2, 23]: 0.6

Cc1cc(N)c2ccccc2[n+]1CCCCCCCCCC[n+]1c(C)cc(N)c2ccccc21 [Dequalinium dichloride]
fold induction at 50 µM (P. aeruginosa; planktonic, cutoff for positive 3-fold increase, read-out: AK-based Prestwick Library Screening Results, P. aeruginosa (fold increase in extracellular AK activity)): 2.3 | fold induction at 50 µM (E. faecium; planktonic, cutoff for positive 3-fold increase, read-out: AK-based Prestwick Library Screening Results, E. faecium (fold increase in extracellular AK activity)): 1.1 | fold induction at 50 µM (K. pneumoniae; planktonic, cutoff for positive 3-fold increase, read-out: AK-based Prestwick Library Screening Results, K. pneumoniae (fold increase in extracellular AK activity)): 1.6 | fold induction at 50 µM (E. coli; planktonic, cutoff for positive 3-fold increase, read-out: AK-based Prestwick Library Screening Results, E. coli (fold increase in extracellular AK activity)): 3 | fold induction at 50 µM (E. cloacae; planktonic, cutoff for positive 3-fold increase, read-out: AK-based Prestwick Library Screening Results, E. cloacae (fold increase in extracellular AK activity)): 1.8 | fold induction at 50 µM ([1]; planktonic, cutoff for positive 3-fold increase, read-out: AK-based Prestwick Library Screening Results, A. baumannii (fold increase in extracellular AK activity)): 3.2 | fold induction at 50 µM ([2]; planktonic, cutoff for positive 3-fold increase, read-out: AK-based Prestwick Library Screening Results, S. aureus (fold increase in extracellular AK activity)): 1.2

CCCCNc1cc(C(=O)O)cc(S(N)(=O)=O)c1Oc1ccccc1 [Bumetanide]
fold induction at 50 µM (P. aeruginosa; [3]): 0.8 | fold induction at 50 µM (E. faecium; [4]): 0.9 | fold induction at 50 µM (K. pneumoniae; [5]): 0.7 | fold induction at 50 µM (E. coli; [6]): 0.9 | fold induction at 50 µM (E. cloacae; [7]): 1.3 | fold induction at 50 µM [1, 8]: 0.8 | fold induction at 50 µM [2, 9]: 0.7

CNC(=C[N+](=O)[O-])NCCSCc1ccc(CN(C)C)o1 [Ranitidine hydrochloride]
fold induction at 50 µM (P. aeruginosa; [10]): 1.3 | fold induction at 50 µM (E. faecium; [11]): 1.1 | fold induction at 50 µM (K. pneumoniae; [12]): 0.9 | fold induction at 50 µM (E. coli; [13]): 1.4 | fold induction at 50 µM (E. cloacae; [14]): 1.5 | fold induction at 50 µM [1, 15]: 1.1 | fold induction at 50 µM [2, 16]: 1.2

C#C[C@]1(O)CC[C@H]2[C@@H]3CCC4=CC(=O)CC[C@@H]4[C@H]3CC[C@@]21CC [Norgestrel-(−)-D]
AK-based Prestwick Library Screening Results, P. aeruginosa (fold increase in extracellular AK activity) (P. aeruginosa; [24]): 1.1 | AK-based Prestwick Library Screening Results, E. faecium (fold increase in extracellular AK activity) (E. faecium; [24]): 1.0 | AK-based Prestwick Library Screening Results, K. pneumoniae (fold increase in extracellular AK activity) (K. pneumoniae; [24]): 1.1 | AK-based Prestwick Library Screening Results, E. coli (fold increase in extracellular AK activity) (E. coli; [24]): 1.0 | AK-based Prestwick Library Screening Results, E. cloacae (fold increase in extracellular AK activity) (E. cloacae; [24]): 1.7 | AK-based Prestwick Library Screening Results, A. baumannii (fold increase in extracellular AK activity) [1, 24]: 1.1 | AK-based Prestwick Library Screening Results, S. aureus (fold increase in extracellular AK activity) [2, 24]: 1.1

CN(N=O)C(=O)N[C@H]1C(O)O[C@H](CO)[C@@H](O)[C@@H]1O (mixture of isomers) [Streptozotocin]
AK-based Prestwick Library Screening Results, P. aeruginosa (fold increase in extracellular AK activity) (P. aeruginosa; [25]): 0.7 | AK-based Prestwick Library Screening Results, E. faecium (fold increase in extracellular AK activity) (E. faecium; [25]): 2.6 | AK-based Prestwick Library Screening Results, K. pneumoniae (fold increase in extracellular AK activity) (K. pneumoniae; [25]): 1.4 | AK-based Prestwick Library Screening Results, E. coli (fold increase in extracellular AK activity) (E. coli; [25]): 0.7 | AK-based Prestwick Library Screening Results, E. cloacae (fold increase in extracellular AK activity) (E. cloacae; [25]): 0.7 | AK-based Prestwick Library Screening Results, A. baumannii (fold increase in extracellular AK activity) [1, 25]: 0.7 | AK-based Prestwick Library Screening Results, S. aureus (fold increase in extracellular AK activity) [2, 25]: 1.2

NC[C@@H]1O[C@H](O[C@H]2[C@@H](O)[C@H](O[C@@H]3[C@@H](O)[C@H](N)C[C@H](N)[C@H]3O[C@H]3O[C@H](CO)[C@@H](O)[C@H](O)[C@H]3N)O[C@@H]2CO)[C@H](N)[C@@H](O)[C@@H]1O [Paromomycin sulfate]
fold induction at 50 µM (P. aeruginosa; [17]): 1 | fold induction at 50 µM (E. faecium; [18]): 0.9 | fold induction at 50 µM (K. pneumoniae; [19]): 1 | fold induction at 50 µM (E. coli; [20]): 1.4 | fold induction at 50 µM (E. cloacae; [21]): 1.4 | fold induction at 50 µM [1, 22]: 1.5 | fold induction at 50 µM [2, 23]: 1.3

Clc1cccc(Cl)c1N=C1NCCN1 [Clonidine hydrochloride]
fold induction at 50 µM (P. aeruginosa; [3]): 0.5 | fold induction at 50 µM (E. faecium; [4]): 0.9 | fold induction at 50 µM (K. pneumoniae; [5]): 0.5 | fold induction at 50 µM (E. coli; [6]): 0.5 | fold induction at 50 µM (E. cloacae; [7]): 0.6 | fold induction at 50 µM [1, 8]: 0.6 | fold induction at 50 µM [2, 9]: 0.5

Reference: patent US10004701B2, “Methods and compositions for treating infection” (UNIVERSITY OF ROCHESTER, priority 2012, dated 2018)
